Earlier results, collected in US20220228277A1, “COMPACT GENERATOR FOR GENERATING STERILIZING MATERIALS” (priority 2021, published 2022).

How the values were obtained:
[1] = in a year
[2] = 20° C. water; also printed as 29.9 ppm
[3] = environment dependent

SMILES	decay of sealed H2O2-H2O solution [1]	solubility of O3 in water [2]	natural life of O3 (turns into O2) [3]
OO [H2O2, hydrogen peroxide]	10%	–	–
O=[O+][O-] [O3, ozone]	–	29.9 µg/mL	20 to 30 min
